{"source": "patent US20250034520A1", "about": "“INCREASING DEVELOPMENTAL POTENTIAL OF HUMAN PREIMPLANTATION EMBRYOS BY REDUCING GENETIC INSTABILITY, ANEUPLOIDIES AND CHROMOSOMAL MOSAICISM” (THE TRUSTEES OF COLUMBIA UNIVERSITY IN THE CITY OF NEW YORK, priority 2022, published 2025)", "key": {"human zygotes": {"system": "human zygotes", "experiment": "DNA damage foci immunostaining in human zygotes/parthenotes", "format": "cell-based", "experimental": "(§1) Embryos, mouse and human, were cultured in Global Total (Life-Global) for the duration of the experiments and with added compounds as outlined below. Incubation in RNA polymerase inhibitors triptolide (1 mM) or alpha amanitin (20 mg/ml) was performed from the 2PN stage (day1) to day3 of human development. Incubation in aphidicolin was performed at 2 mM. […] Mirin was used at a concentration of 50 mM. Olaparib was used to inhibit PARP at a concentration of 10 mM. All experiments were conducted during incubation at 37° C. with 5% CO2 and 19-20% O2. Chemical stock solutions were prepared in DMSO at concentrations at least 1000× higher than the final concentration.\nArtificial activation of human MII oocytes was performed using two pulses of 2.7 kV/cm at 50 ms using ECFG21 (Nepagene) in fusion buffer consisting of 0.25 M d-sorbitol buffer containing 0.1 mM calcium acetate, 0.5 mM magnesium acetate, 0.5 mM HEPES, and 1 mg ml^−1 fatty-acid-free BSA as previously described (Tachibana et al., 2013). Thereafter, oocytes were incubated for 3.5-4 h in 10 mg/ml puromycin, followed by a wash step and following culture in Global total.\nFollowing the experimental exposures, mouse and human embryos were fixed in 2% paraformaldehyde (PFA) and 0.25% Triton X-100 in PBS for 10 minutes at room temperature, serially washed in phosphate-buffered solution (PBS) at room temperature, then stored in PBS at 4° C. until staining and imaging. Embryos were placed in 10-20 ml droplets of primary antibody solution within plastic tissue culture dishes covered with mineral oil for 1 hour at room temperature, serially washed (×2) in PBS containing 0.01% Triton X-100 to prevent embryos sticking to oil, then transferred to 10-20 ml secondary antibody solution and Hoechst (dilution 1:500) for 30 minutes. Embryos were then serially washed (×2) and placed in 5 ml droplets of PBS with 0.5% serum albumin in uncoated glass bottom dishes (Mattek) covered with embryo culture oil for imaging. The following primary antibodies were used across experiments as described above: Oct-4, γH2AX, RPA32, RPA32 S4/S8, RPA32 S33, 53BP1, RAD51, Centromere, and phospho-CHK1. […] The appropriate secondary antibodies conjugated with Alexa Fluor 488, Alexa Fluor 555, CF 568, or Alexa Fluor 647 were diluted at 1:500-1:1000. Ethynyl deoxyuridine (EdU) labeling of zygotes and embryos was performed using the labeling kit (Thermo Fisher Scientific) as described by the manufacturer. 10 mM EdU was added to culture medium for 1 h at the indicated time points, and cells were harvested and fixed thereafter. 5-ethynyl uridine (EU) labeling was performed by incubating day3 cleavage stage embryos for 4 hours in Global total containing 0.2 mM EU.\nEmbryos were imaged with confocal microscopy using a Zeiss LSM (LSM 710) at a magnification of 63× and the Zeiss Zen software. Images were obtained using 488-, 543- and 633-nm lasers and bright-field microscopy. The number of confocal sections was adjusted to capture the entire nucleus or the entire embryo according to the experimental design as described above. Cell numbers and staining foci numbers were counted manually. Nuclei were identified by the presence of Hoechst33342. Foci were identified if at least 3× greater intensity than nuclear average, spherical in appearance, and overlapping with Hoechst33342 staining. Inner cell masses were identified by the presence of Oct4 within a blastocyst embryo. Active DNA replication was identified by the presence of EdU. DNA damage was identified by the detection of γH2AX and RPA foci within the nucleus. Mechanisms of DNA repair were identified through the detection of RPA S4/S8, RPA S33, Rad51 and 53BP1 foci within the nucleus."}, "human embryos": {"system": "human embryos", "experiment": "single-cell/single-nuclei sequencing chromosome content analysis, human embryos", "format": "cell-based", "experimental": "as §1\nSingle cells from blastomeres were collected on the heated stage (Tokai Hit) of an Olympus IX71 inverted microscope equipped with Narishige micromanipulators and a zona pellucida laser (Hamilton-Thorne). Single nuclei were isolated from blastomeres by lysis and dissection of different nuclei using two […] diameter Piezo micropipettes and Holding pipette (Origio). Single embryo cells or nuclei were placed manually in single wells of a 96-well plate containing 9 ml of lysis buffer, prepared as a master mix of 798 ml H2O, 6 ml of 10 mg/mL Proteinase K solution (Sigma-Aldrich), and 96 ml 10× Single Cell Lysis and Fragmentation buffer (Sigma-Aldrich). Single cells/single nuclei were lysed by heating 96-well plates containing single cells/single nuclei at 50° C. for 1 hour, followed by incubation at 99° C. for four minutes using a PCR thermocycler. Single-cell/single-nuclei whole genome amplification (WGA) using degenerate oligo-nucleotide priming PCR (DOP-PCR) was performed using the SEQPLEX Enhanced DNA Amplification Kit (SEQXE, Sigma) according to the manufacturer's instructions. In addition, a modified version of the DOP-PCR protocol that allows inline indexing of WGA DNA was also applied. WGA DNA was subsequently processed for Illumina library sequencing preparation using standard TruSeq indexing methods via the NEBNext Ultra II DNA Library Prep Kit for Illumina (New England Biolabs). NEBNext Multiplex Oligos for Illumina (96 index primers) were used for four amplification cycles. Library DNA was quantified using Qubit dsDNA HS Assay Kit (Invitrogen, Carlsbad, CA, USA) and library size distribution was confirmed using a 2100 Bioanalyzer DNA 1000 Kit (Agilent, Santa Clara, CA, USA). A unimodal curve centered around 300-500 bp was scored as a successful library preparation. Subsequently, 30 mL of each pooled library was sent for sequencing at a concentration of 20 ng/ml. Mutiplex sequencing was performed using Illumina HiSeq 2500 single end indexed run (SR100) while targeting a coverage of approximately 1 million reads per cell/nuclei, sufficient for quantitative genome-wide copy number analysis.\nAnalysis of DNA sequencing data was performed as previously described (Baslan et al., 2015) with minor modifications as outlined below. Briefly, multiplex sequencing data were demultiplexed according to unique barcodes with reads assigned to their respective single-cell or single-nuclei. Unique reads were aligned to the reference human and mouse genome builds, hg19 and mm9, respectively. Each genome was partitioned into 5000 bins using a previously described algorithm (Varbin) that corrects for genome sequence mappability (Baslan et al., 2012; Navin et al., 2011). Uniquely mapped reads were sorted, indexed and subsequently counted within the partitioned genomic bins. For single-cell copy number inference, read count data were normalized genome-wide followed by CBS segmentation (Olshen et al., 2004) and transformed into integer copy number states using a least-squares fit approach (Baslan et al., 2015).\nCopy number inference from single-nuclei sequencing data was performed similarly with the exception that bin read counts were initially processed using Kernel Density Estimation (KDE) resulting in two primary densities. […]"}, "[1]": {"conditions": "human, aphidicolin incubation in G2 phase"}, "[2]": {"conditions": "aphidicolin and G2 checkpoint kinase inhibitor at 15.5 h"}}}
{"compound": "C[C@@]1(CO)[C@H](O)CC[C@@]2(C)[C@H]1CC[C@H]1C[C@@H]3C[C@@]12CC[C@]3(O)CO", "note": "[aphidicolin]", "values": [{"measurement": "time to formation of foci for γH2AX and RPA32", "setting": "human zygotes; aphidicolin from 15.5 h post activation", "result": "≤ 6", "unit": "h"}, {"measurement": "RPA32-positive foci per haploid nucleus, average", "setting": "human zygotes; human, aphidicolin incubation", "result": 1.8, "unit": "per haploid nucleus"}, {"measurement": "γH2AX foci positive for RPA32", "setting": "human zygotes; human, aphidicolin incubation", "result": "Approximately 10%"}, {"measurement": "mean γH2AX foci", "setting": "human zygotes; [1]", "result": 21}, {"measurement": "γH2AX foci, range", "setting": "human zygotes; [1]", "result": "0-51"}, {"measurement": "chromosomal breaks identified", "setting": "human embryos; 4 2PN zygotes, aphidicolin and CHK1 inhibitor at 18 h post ICSI", "result": 7}, {"measurement": "aneuploidy", "setting": "human embryos; addition of aphidicolin to CHK1 inhibition in G2 phase", "result": "further amplified"}, {"measurement": "chromosomes with one or more segmental copy-number transitions, share", "setting": "human embryos; [2]", "result": 27, "unit": "%"}, {"measurement": "independent break points per embryo, average", "setting": "human embryos; [2]", "result": 51}, {"measurement": "whole-chromosome losses, share of aneuploid chromosomes in micronuclei", "setting": "human embryos; [2]", "result": 73, "unit": "%"}, {"measurement": "total break sites", "setting": "human embryos; aphidicolin and G2 checkpoint kinase inhibitor at 15.5 h, 21 micronuclei from 4 zygotes", "result": 331}, {"measurement": "human embryos aneuploid", "setting": "human embryos; combined aphidicolin exposure and G2 checkpoint inhibition", "result": "all"}]}
